According to ChEMBL document CHEMBL5705896 (ACS Chem Biol, 2013):
Calls of active or inactive are those of the source. The rule behind the calls is not given here.

Experiments:
[1] = molecular target: Ephrin type-B receptor 4 (Homo sapiens) (UniProt P54760); experiment: Inhibition of human cytoplasmic domain N-terminal GST tagged EPHB4 (577 to 987 end residues) expressed in baculovirus expression system using Blk/lyntide as substrate at 10 uM by mobility shift assay relative to control
[2] = molecular target: Vascular endothelial growth factor receptor 2 (Homo sapiens) (UniProt P35968); experiment: Inhibition of human cytoplasmic domain N-terminal GST tagged KDR (790 to 1356 end residues) expressed in baculovirus expression system using CSKtide as substrate at 10 uM by mobility shift assay relative to control
[3] = molecular target: Tyrosine-protein kinase Lck (Homo sapiens) (UniProt P06239); experiment: Inhibition of full length human N-terminal GST tagged LCK (1 to 509 end residues) expressed in baculovirus expression system using Srctide as substrate at 10 uM by mobility shift assay relative to control
[4] = molecular target: Hepatocyte growth factor receptor (Homo sapiens) (UniProt P08581); experiment: Inhibition of human cytoplasmic domain N-terminal GST tagged MET (956 to 1390 end residues) expressed in baculovirus expression system using Srctide as substrate at 10 uM by mobility shift assay relative to control
[5] = molecular target: Tyrosine-protein kinase SYK (Homo sapiens) (UniProt P43405); experiment: Inhibition of full length human N-terminal GST tagged SYK (1 to […] end residues) expressed in baculovirus expression system using Blk/lyntide as substrate at 10 uM by mobility shift assay relative to control
[6] = molecular target: Angiopoietin-1 receptor (Homo sapiens) (UniProt Q02763); experiment: Inhibition of human cytoplasmic domain N-terminal GST tagged TIE2 (771 to 1124 end residues) expressed in baculovirus expression system using Blk/lyntide as substrate at 10 uM by mobility shift assay relative to control
[7] = molecular target: Dual specificity tyrosine-phosphorylation-regulated kinase 1B (Homo sapiens) (UniProt Q9Y463); experiment: Inhibition of full length human N-terminal GST tagged DYRK1B (1 to 629 end residues) expressed in baculovirus expression system using DYRKtide-F as substrate at 10 uM by mobility shift assay relative to control
[8] = molecular target: MAP kinase-activated protein kinase 2 (Homo sapiens) (UniProt P49137); experiment: Inhibition of full length human N-terminal GST tagged MAPKAPK2 1 to 400 end residues) expressed in baculovirus expression system using GS as peptide at 10 uM by mobility shift assay relative to control
[9] = molecular target: Serine/threonine-protein kinase Nek2 (Homo sapiens) (UniProt P51955); experiment: Inhibition of full length human N-terminal his-tagged NEK2 (1 to 445 end residues) expressed in baculovirus expression system using CDK7 peptide as substrate at 10 uM by mobility shift assay relative to control
[10] = molecular target: Serine/threonine-protein kinase D2 (Homo sapiens) (UniProt Q9BZL6); experiment: Inhibition of full length human N-terminal GST tagged PKD2 (1 to 878 end residues) expressed in baculovirus expression system using GS as peptide at 10 uM by mobility shift assay relative to control
[11] = molecular target: 5-hydroxytryptamine receptor 2A (Homo sapiens) (UniProt P28223); experiment: Inhibition of 5-HT2A receptor (unknown origin) at 10 uM by radioligand binding assay relative to control
[12] = molecular target: Alpha-2A adrenergic receptor (Homo sapiens) (UniProt P08913); experiment: Inhibition of Alpha2A receptor (unknown origin) at 10 uM by radioligand binding assay relative to control
[13] = molecular target: D(2) dopamine receptor (Homo sapiens) (UniProt P14416); experiment: Inhibition of dopamine D2 receptor (unknown origin) at 10 uM by radioligand binding assay relative to control
[14] = molecular target: D(3) dopamine receptor (Homo sapiens) (UniProt P35462); experiment: Inhibition of dopamine D3 receptor (unknown origin) at 10 uM by radioligand binding assay relative to control
[15] = molecular target: D(4) dopamine receptor (Homo sapiens) (UniProt P21917); experiment: Inhibition of dopamine D4 receptor (unknown origin) at 10 uM by radioligand binding assay relative to control
[16] = molecular target: Translocator protein (Homo sapiens) (UniProt P30536); experiment: Inhibition of PBR (unknown origin) at 10 uM by radioligand binding assay relative to control
[17] = molecular target: Sigma non-opioid intracellular receptor 1 (Homo sapiens) (UniProt Q99720); experiment: Inhibition of Sigma1 receptor (unknown origin) at 10 uM by radioligand binding assay relative to control
[18] = molecular target: T1, Sigma intracellular receptor 2 (Homo sapiens, UniProt Q5BJF2); experiment: Inhibition of Sigma2 receptor (unknown origin) at 10 uM by radioligand binding assay relative to control
[19] = molecular target: T1, Sigma intracellular receptor 2; experiment: Binding affinity to sigma 2 receptor (unknown origin) assessed as inhibition constant
[20] = molecular target: Histone-lysine N-methyltransferase EZH2 (Homo sapiens, UniProt Q15910, Y641F); experiment: Inhibition of EZH2 Y641F mutant (unknown origin) using HMT as substrate incubated for 60 mins by luminescence based analysis
[21] = molecular target: N-lysine methyltransferase SMYD2 (Homo sapiens, UniProt Q9NRG4); experiment: Inhibition of SMYD2 (unknown origin) using [3H-SAM] as substrate incubated for 1 hr by scintillation proximity assay
[22] = molecular target: Protein arginine N-methyltransferase 5 (Homo sapiens, UniProt O14744); experiment: Inhibition of PRMT5 (unknown origin) using [3H-SAM] as substrate incubated for 1 hr by scintillation proximity assay
[23] = molecular target: Protein arginine N-methyltransferase 1 (Homo sapiens, UniProt Q99873); experiment: Inhibition of PRMT1 (unknown origin) using [3H-SAM] as substrate incubated for 1 hr by scintillation proximity assay
[24] = molecular target: Histone-lysine N-methyltransferase KMT5C (Homo sapiens, UniProt Q86Y97); experiment: Inhibition of SUV420H2 (unknown origin) using [3H-SAM] as substrate incubated for 1 hr by scintillation proximity assay
[25] = molecular target: Histone-lysine N-methyltransferase EHMT1 (Homo sapiens, UniProt Q9H9B1); experiment: Inhibition of EHMT1 (unknown origin) using [3H-SAM] as substrate incubated for 1 hr by scintillation proximity assay
[26] = molecular target: Histone-lysine N-methyltransferase, H3 lysine-79 specific (Homo sapiens, UniProt Q8TEK3); experiment: Inhibition of DOT1L (unknown origin) using [3H-SAM] as substrate incubated for 1 hr by scintillation proximity assay
MCF7 = experiment: Effect on EZH2 level in human MCF7 cells at 5 uM incubated for 3 days by immunofluorescence staining based analysis; assay type: functional, cell-based; conditions: time 3.0 day
DB = experiment: Antiproliferative activity against human DB cells assessed as reduction in cell viability at 5000 nM by cell proliferation assay relative to control; assay type: functional
[27] = Toxicity in Swiss albino mouse assessed as adverse effect at 15 to 150 mg/kg administered as single ip dose measured upto 24 hrs; assay type: organism-based; conditions: in vivo, dose 15-150 mg/kg
[28] = molecular target: Histone-lysine N-methyltransferase EZH2 (Homo sapiens, UniProt Q15910)
Description: Inhibition of human EZH2 in human MCF-10A cells assessed as reduction in H3K27me3 levels incubated for 72 hrs by In-cell western assay

T1 sequence (Q5BJF2 whole entry): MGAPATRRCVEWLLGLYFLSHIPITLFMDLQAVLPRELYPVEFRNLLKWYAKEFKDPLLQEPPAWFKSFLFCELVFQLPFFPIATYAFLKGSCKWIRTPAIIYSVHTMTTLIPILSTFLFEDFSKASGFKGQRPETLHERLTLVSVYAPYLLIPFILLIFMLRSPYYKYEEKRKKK
Histone-lysine N-methyltransferase, H3 lysine-79 specific, sequence (Q8TEK3 whole entry): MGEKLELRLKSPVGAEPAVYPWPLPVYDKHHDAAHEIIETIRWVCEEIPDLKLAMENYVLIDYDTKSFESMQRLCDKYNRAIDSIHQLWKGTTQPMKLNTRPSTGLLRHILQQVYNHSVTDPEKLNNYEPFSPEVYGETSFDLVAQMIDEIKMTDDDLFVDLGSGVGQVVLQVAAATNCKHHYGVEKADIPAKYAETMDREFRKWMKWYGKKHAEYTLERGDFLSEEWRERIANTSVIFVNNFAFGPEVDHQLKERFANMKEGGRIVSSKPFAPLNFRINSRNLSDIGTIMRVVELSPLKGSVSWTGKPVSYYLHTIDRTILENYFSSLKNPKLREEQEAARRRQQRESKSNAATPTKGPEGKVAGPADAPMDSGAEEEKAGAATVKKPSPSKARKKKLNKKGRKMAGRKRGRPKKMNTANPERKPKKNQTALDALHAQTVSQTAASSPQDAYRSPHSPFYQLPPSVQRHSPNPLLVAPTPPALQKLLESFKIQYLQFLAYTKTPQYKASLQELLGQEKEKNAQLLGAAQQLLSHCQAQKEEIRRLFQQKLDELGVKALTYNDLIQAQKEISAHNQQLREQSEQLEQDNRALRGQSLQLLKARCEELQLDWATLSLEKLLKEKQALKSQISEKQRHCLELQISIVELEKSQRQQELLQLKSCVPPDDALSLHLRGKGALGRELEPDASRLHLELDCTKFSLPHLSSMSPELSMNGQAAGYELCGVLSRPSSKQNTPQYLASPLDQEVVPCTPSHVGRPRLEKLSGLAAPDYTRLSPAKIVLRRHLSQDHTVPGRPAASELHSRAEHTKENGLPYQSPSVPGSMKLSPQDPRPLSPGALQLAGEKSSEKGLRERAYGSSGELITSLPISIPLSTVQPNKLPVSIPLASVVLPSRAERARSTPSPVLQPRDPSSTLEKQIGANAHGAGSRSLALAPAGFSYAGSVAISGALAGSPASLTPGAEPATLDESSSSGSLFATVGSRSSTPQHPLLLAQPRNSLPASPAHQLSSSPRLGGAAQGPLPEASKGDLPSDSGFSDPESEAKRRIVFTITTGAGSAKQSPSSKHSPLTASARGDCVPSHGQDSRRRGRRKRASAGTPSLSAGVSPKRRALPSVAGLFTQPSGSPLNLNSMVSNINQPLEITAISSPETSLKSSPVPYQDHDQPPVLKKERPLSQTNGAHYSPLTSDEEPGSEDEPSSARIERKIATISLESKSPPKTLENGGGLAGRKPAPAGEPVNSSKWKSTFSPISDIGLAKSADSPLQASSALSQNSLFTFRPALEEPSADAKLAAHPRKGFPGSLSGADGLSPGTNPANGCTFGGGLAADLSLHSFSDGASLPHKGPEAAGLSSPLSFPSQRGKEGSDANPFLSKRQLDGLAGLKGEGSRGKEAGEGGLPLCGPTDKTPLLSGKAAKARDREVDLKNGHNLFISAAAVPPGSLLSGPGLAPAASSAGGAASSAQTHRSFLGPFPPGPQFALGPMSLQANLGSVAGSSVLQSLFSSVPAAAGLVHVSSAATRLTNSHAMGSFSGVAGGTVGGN
5-hydroxytryptamine receptor 2A (Homo sapiens), sequence (P28223 whole entry): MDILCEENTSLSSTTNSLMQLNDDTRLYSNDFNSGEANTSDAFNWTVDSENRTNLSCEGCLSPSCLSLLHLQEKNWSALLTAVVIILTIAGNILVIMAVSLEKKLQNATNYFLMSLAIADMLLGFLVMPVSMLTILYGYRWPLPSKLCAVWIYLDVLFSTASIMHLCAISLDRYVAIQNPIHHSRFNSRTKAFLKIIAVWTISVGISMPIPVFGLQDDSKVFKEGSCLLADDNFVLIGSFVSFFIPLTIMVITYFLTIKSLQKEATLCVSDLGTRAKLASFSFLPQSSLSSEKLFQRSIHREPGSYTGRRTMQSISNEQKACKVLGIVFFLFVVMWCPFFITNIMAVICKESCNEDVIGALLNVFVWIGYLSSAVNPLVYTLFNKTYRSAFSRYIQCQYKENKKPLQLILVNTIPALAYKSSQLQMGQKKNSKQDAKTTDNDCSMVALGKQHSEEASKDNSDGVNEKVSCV
Alpha-2A adrenergic receptor (Homo sapiens), sequence (P08913 whole entry): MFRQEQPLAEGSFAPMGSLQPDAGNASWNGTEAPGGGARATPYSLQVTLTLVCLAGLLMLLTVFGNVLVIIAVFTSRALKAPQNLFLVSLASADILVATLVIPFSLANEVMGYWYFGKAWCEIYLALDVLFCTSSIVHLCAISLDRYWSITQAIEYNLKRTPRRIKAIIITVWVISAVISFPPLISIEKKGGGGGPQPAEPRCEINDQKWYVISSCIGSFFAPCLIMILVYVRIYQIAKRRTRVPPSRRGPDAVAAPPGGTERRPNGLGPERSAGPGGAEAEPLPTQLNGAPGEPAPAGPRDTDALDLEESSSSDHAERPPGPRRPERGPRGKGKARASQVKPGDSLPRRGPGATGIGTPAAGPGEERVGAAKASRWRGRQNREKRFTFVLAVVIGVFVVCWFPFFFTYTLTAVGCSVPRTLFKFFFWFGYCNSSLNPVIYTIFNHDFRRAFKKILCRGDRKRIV
Serine/threonine-protein kinase Nek2 (Homo sapiens), sequence (P51955 whole entry): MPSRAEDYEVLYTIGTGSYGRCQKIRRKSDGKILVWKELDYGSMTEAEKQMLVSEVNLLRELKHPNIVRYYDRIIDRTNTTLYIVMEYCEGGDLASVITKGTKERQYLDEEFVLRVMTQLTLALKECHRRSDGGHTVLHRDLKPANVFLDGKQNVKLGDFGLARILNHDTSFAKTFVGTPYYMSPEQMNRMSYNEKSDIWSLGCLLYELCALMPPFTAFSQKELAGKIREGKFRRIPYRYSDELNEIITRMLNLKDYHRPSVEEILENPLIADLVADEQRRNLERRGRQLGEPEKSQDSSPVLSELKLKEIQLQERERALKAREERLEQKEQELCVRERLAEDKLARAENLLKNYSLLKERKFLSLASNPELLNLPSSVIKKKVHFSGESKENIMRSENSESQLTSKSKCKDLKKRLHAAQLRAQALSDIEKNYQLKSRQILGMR
MAP kinase-activated protein kinase 2 (Homo sapiens), sequence (P49137 whole entry, looked up): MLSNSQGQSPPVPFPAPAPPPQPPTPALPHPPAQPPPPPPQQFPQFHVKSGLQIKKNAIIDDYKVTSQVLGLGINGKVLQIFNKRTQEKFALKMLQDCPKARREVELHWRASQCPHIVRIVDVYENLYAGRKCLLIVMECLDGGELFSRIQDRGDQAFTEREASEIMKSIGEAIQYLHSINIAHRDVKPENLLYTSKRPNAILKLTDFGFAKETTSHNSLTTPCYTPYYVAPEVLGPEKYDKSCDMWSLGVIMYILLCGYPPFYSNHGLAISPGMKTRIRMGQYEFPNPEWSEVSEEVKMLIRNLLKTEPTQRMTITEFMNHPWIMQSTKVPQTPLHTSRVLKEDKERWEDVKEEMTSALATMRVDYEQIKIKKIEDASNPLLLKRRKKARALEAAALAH
Sigma non-opioid intracellular receptor 1 (Homo sapiens), sequence (Q99720 whole entry): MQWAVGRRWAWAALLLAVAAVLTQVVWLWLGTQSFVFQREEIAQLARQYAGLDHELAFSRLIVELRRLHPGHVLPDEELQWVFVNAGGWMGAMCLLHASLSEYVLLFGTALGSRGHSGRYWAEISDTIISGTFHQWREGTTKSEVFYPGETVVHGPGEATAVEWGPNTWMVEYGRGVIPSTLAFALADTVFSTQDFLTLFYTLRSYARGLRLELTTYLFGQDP
D(4) dopamine receptor (Homo sapiens), sequence (P21917 whole entry): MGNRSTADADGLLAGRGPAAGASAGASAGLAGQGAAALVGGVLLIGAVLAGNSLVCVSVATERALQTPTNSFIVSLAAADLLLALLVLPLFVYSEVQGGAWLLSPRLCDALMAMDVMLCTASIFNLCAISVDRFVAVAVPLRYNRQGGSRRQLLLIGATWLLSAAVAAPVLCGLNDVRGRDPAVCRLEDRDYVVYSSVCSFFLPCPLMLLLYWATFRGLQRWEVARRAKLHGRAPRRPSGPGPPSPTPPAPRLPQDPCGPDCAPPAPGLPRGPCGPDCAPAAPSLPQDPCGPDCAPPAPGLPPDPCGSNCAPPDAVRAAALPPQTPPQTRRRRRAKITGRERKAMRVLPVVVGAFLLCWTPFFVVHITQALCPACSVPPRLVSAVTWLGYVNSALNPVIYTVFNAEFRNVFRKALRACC
Translocator protein (Homo sapiens), sequence (P30536 whole entry): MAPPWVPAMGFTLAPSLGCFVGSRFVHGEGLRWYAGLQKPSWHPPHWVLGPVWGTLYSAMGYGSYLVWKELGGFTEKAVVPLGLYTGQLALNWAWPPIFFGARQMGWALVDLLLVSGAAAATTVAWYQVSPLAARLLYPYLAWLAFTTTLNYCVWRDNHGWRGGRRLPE
D(2) dopamine receptor (Homo sapiens), sequence (P14416 whole entry): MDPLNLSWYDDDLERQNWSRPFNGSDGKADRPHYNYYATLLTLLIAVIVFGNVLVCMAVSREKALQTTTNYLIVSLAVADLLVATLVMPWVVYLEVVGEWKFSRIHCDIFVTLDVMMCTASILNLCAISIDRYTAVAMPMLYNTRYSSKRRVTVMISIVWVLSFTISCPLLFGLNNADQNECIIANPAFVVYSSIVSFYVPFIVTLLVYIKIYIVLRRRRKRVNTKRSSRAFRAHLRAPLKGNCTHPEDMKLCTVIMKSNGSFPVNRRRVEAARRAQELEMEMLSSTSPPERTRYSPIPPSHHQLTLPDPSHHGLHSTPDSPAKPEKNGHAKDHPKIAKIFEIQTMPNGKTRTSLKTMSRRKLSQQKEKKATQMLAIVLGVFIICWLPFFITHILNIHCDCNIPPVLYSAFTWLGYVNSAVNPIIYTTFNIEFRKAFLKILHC

In the case of CCCc1cc(C)[nH]c(=O)c1CNC(=O)c1cc(-c2ccc(N3CCN(C(C)C)CC3)nc2)cc2c1cnn2C(C)C, the inhibition [1] is reported as -6%, the inhibition [2] is reported as -2% and the inhibition [3] is reported as 0%. It also gave an inhibition [4] of -3%, an inhibition [5] of -6% and an inhibition [6] of -6%. The inhibition [7] was -4%, the inhibition [8] was 4% and the inhibition [9] was -4%. For the same compound, the inhibition [10] was 5%, the inhibition [11] was 39% and the inhibition [12] was 14%. For the same compound, the inhibition [13] was 9%, the inhibition [14] was 28% and the inhibition [15] was 2%. For the same compound, the inhibition [16] was 31%, the inhibition [17] was 57% and the inhibition [18] was 93%. It also gave a Ki [19] of 0.065 µM, an IC50 [20] of less than 0.015 µM and an IC50 [21] greater than 100 µM. It also gave an IC50 [22] greater than 100 µM, an IC50 [23] greater than 100 µM and an IC50 [24] greater than 100 µM. For the same compound, the IC50 [25] was greater than 100 µM, the IC50 [26] was greater than 100 µM and the Activity (MCF7) was “inactive”. For the same compound, the Activity (DB) was 100%, the Activity [27] was “Non-Toxic” and the IC50 [28] was 0.124 µM.
